Assay results taken from patent US5466717A, “Halogenated 4'-methoxyacetophenones as microbicides and preservatives” (Buckman Laboratories Int'l, Inc., priority 1993, dated 1995).
Like-named read-outs stand apart in the source and are kept apart here.

How the values were obtained:
[1] = tested on: Desulfovibrio desulfuricans; test: Effectiveness against sulfate reducing bacterium, Method API Rp 38 (Table 7); format: cell-based; design: key: +: growth; 0: no growth; details: pH 7.0, duplicates
Procedure: The effectiveness of compounds 1 and 2 against Desulfovibrio desulfuricans,a sulfate reducing bacterium, was determined using the method recommended by the American Petroleum Institute (Method API Rp 38). The composition of the sulfate-reducer medium for the bacteriostatic test is as follows: The ingredients are dissolved by gentle heating with constant stirring. […] If necessary, the medium is then filtered through Whatman No. 1 or No. 2 filter paper. Following filtration, the medium is autoclaved at 15 lb steam pressure for […]. After autoclaving, the medium is allowed to cool slightly and the iron salt, Fe(SO4)2 (NH4)2.6H2 O, is added. The pH is then checked and readjusted if necessary. The medium is now cooled to room temperature as rapidly as possible, without agitation. After cooling, the medium is inoculated from the third successive 24-hour transfer of an actively growing culture (a liquid culture which turns black within 24 hours after inoculation) of sulfate-reducing bacteria. Ten milliliters of inoculum are added to each liter of medium. From stock solutions of the chemical to be screened, sufficient amounts of the compounds are added to 1- or 2-oz clear bottles so that the desired concentrations of chemicals are present when the containers are filled. The amount of stock solution added cannot exceed 10 percent of the volume of the test bottle. After addition of the chemical, the bottles are completely filled with the inoculated medium. The bottles are then capped with plastic caps containing cork and aluminum foil or Teflon liners and are incubated at 30°±2° C. All work is done in duplicate with at least three controls for each series. The controls consist of bottles filled with inoculated medium only. Growth of sulfate-reducing bacteria in the bottles is indicated by an intense blackening of the medium, whereas containers having sufficient chemical to inhibit growth will remain clear. Bottles with no sulfate-reducing bacteria growth are observed for a period of 28 days after the controls have blackened. The results were recorded using a +/0 scale where "+" indicates growth and "0" indicates no growth.

Pseudomonas aeruginosa = test: Pulp substrate method, percent kill of P. aeruginosa (Table 2); format: cell-based
Procedure: Compounds 1 and 2 were tested by the pulp substrate method described in detail in U.S. Pat. No. 2,881,070, column 5, line 12--column 6, line 53. The disclosure of U.S. Pat. No. 2,881,070 is specifically incorporated here by reference. […] The tests utilized Enterobacter aerogenes and Pseudomonas aeruginosa in pulp substrates that had been buffered at pH 7.0 and 8.0.

P. aeruginosa = test: Basal salts method, percentage kill of P. aeruginosa (Table 5); format: cell-based; details: Pseudomonas aeruginosa
Procedure: Compounds 1 and 2 were tested against bacterial growth by the basal salts method described in U.S. Pat. No. 2,881,070, Column 5, line 12--Column 6, line 53. The disclosure of U.S. Patent No. 2,881,070 is specifically incorporated here by reference.

[2] = tested on: Aspergillus sp., Aureobasidium sp., Trichoderma sp., Penicillium sp., and Chaetomium sp.; test: Resistance to growth of mold on the surface of interior coatings in an environmental chamber, ASTM D3273-86 (Table 4); design: key: 10: no mold growth; 9: very slight mold growth; 8: slight growth; 7: slight to medium growth; 6: slight to medium growth; 5: failure (extensive growth)
Procedure: A standard method to determine the resistance to growth of mold on the surface of interior coatings in an environmental chamber, ASTM method D3273-86, was used to determine the effectiveness of compounds 1 and 2.
Treatments were prepared by dissolving 2.0 g of the compounds of the present invention in 10 mL of acetone/methanol. Two types of paint were used: namely, an alkyd (self-priming white with Beckasol 296-70) and a latex (self-priming, alkyd-modified acrylic paint). […] Each sample was shaken vigorously for 5 minutes using a standard paint shaker.
Blocks of drywall having two inch by four inch dimensions were painted on the front surface and on all edges with two coats of the respective treatments. After drying, the back side was painted with one coat of clear latex. A hole was drilled half-way through the block at one end, and duplicate blocks per treatment were hung in an environmental chamber.
The aggressive nature of the interior of the chamber was developed by inoculating trays of moist potting soil with active cultures of Aspergillus sp., Aureobasidium sp., Trichoderma sp., Penicillium sp., and Chaetomium sp. The chamber was maintained at 100 percent relative humidity and 32° C. Final observations were made after four weeks (for latex blocks) or eight weeks (for alkyd blocks).

[3] = pH 7.0, read-out: % Kill of P. aeroginosa
[4] = pH 8.0, read-out: % Kill of P. aeroginosa
[5] = 0.01 % by weight, alkyd, eight weeks
[6] = 0.01 % by weight, latex, four weeks
[7] = 0.025 % by weight, alkyd, eight weeks
[8] = 0.025 % by weight, latex, four weeks
[9] = 0.05 % by weight, alkyd, eight weeks
[10] = 0.05 % by weight, latex, four weeks
[11] = 0.10 % by weight, alkyd, eight weeks
[12] = 0.10 % by weight, latex, four weeks
[13] = 0.25 % by weight, alkyd, eight weeks
[14] = 0.25 % by weight, latex, four weeks
[15] = 0.50 % by weight, alkyd, eight weeks
[16] = 0.50 % by weight, latex, four weeks

COc1ccc(C(=O)C(Br)Br)cc1Br [Compound 2, 2,2,3'-tribromo-4'-methoxyacetophenone]
growth of Desulfovibrio desulfuricans ([1]; 1 ppm): +
growth of Desulfovibrio desulfuricans ([1]; 2 ppm): +
growth of Desulfovibrio desulfuricans ([1]; 8 ppm): +
killing at 1 ppm (Pseudomonas aeruginosa; [3]): 15%
killing at 1 ppm (Pseudomonas aeruginosa; [4]): 0%
killing at 2 ppm (Pseudomonas aeruginosa; [3]): 0%
killing at 2 ppm (Pseudomonas aeruginosa; [4]): 54%
killing at 4 ppm (Pseudomonas aeruginosa; [3]): 36%
killing at 4 ppm (Pseudomonas aeruginosa; [4]): 25%
killing at 8 ppm (Pseudomonas aeruginosa; [3]): 17%
killing at 8 ppm (Pseudomonas aeruginosa; [4]): 71%
killing at 10 ppm (Pseudomonas aeruginosa; [3]): 80%
killing at 10 ppm (Pseudomonas aeruginosa; [4]): 86%
killing at 15 ppm (Pseudomonas aeruginosa; [3]): 97%
killing at 15 ppm (Pseudomonas aeruginosa; [4]): 94%
killing at 20 ppm (Pseudomonas aeruginosa; [3]): 98%
killing at 20 ppm (Pseudomonas aeruginosa; [4]): 99%
killing at 25 ppm (Pseudomonas aeruginosa; [3]): 97%
killing at 25 ppm (Pseudomonas aeruginosa; [4]): 99%
killing at 10 ppm (P. aeruginosa; pH 6.0): 99.8%
killing at 10 ppm (P. aeruginosa; pH 8.0): 94%
killing at 20 ppm (P. aeruginosa; pH 6.0): 100%
killing at 20 ppm (P. aeruginosa; pH 8.0): 100%
killing at 30 ppm (P. aeruginosa; pH 8.0): 100%
Growth of mold on the surface of interior coatings [2, 5]: 5
Growth of mold on the surface of interior coatings [2, 6]: 9
Growth of mold on the surface of interior coatings [2, 7]: 5
Growth of mold on the surface of interior coatings [2, 8]: 10
Growth of mold on the surface of interior coatings [2, 9]: 6
Growth of mold on the surface of interior coatings [2, 10]: 10
Growth of mold on the surface of interior coatings [2, 11]: 8
Growth of mold on the surface of interior coatings [2, 12]: 10
Growth of mold on the surface of interior coatings [2, 13]: 10
Growth of mold on the surface of interior coatings [2, 14]: 10
Growth of mold on the surface of interior coatings [2, 15]: 10
Growth of mold on the surface of interior coatings [2, 16]: 10

COc1ccc(C(=O)CBr)cc1Br [Compound 1, 2,3'-dibromo-4'-methoxyacetophenone]
growth of Desulfovibrio desulfuricans ([1]; 1 ppm): +
growth of Desulfovibrio desulfuricans ([1]; 2 ppm): +
growth of Desulfovibrio desulfuricans ([1]; 8 ppm): +
killing at 1 ppm (Pseudomonas aeruginosa; [3]): 6%
killing at 1 ppm (Pseudomonas aeruginosa; [4]): 85%
killing at 2 ppm (Pseudomonas aeruginosa; [3]): 7%
killing at 2 ppm (Pseudomonas aeruginosa; [4]): 75%
killing at 4 ppm (Pseudomonas aeruginosa; [3]): 43%
killing at 4 ppm (Pseudomonas aeruginosa; [4]): 89%
killing at 8 ppm (Pseudomonas aeruginosa; [3]): 67%
killing at 8 ppm (Pseudomonas aeruginosa; [4]): 70%
killing at 10 ppm (Pseudomonas aeruginosa; [3]): 93%
killing at 10 ppm (Pseudomonas aeruginosa; [4]): 79%
killing at 15 ppm (Pseudomonas aeruginosa; [3]): 94%
killing at 15 ppm (Pseudomonas aeruginosa; [4]): 94%
killing at 20 ppm (Pseudomonas aeruginosa; [3]): 98%
killing at 20 ppm (Pseudomonas aeruginosa; [4]): 89%
killing at 25 ppm (Pseudomonas aeruginosa; [3]): 97%
killing at 25 ppm (Pseudomonas aeruginosa; [4]): 99%
killing at 10 ppm (P. aeruginosa; pH 6.0): 100%
killing at 10 ppm (P. aeruginosa; pH 8.0): 98%
killing at 20 ppm (P. aeruginosa; pH 6.0): 100%
killing at 20 ppm (P. aeruginosa; pH 8.0): 99%
killing at 30 ppm (P. aeruginosa; pH 6.0): 100%
killing at 30 ppm (P. aeruginosa; pH 8.0): 99.6%
Growth of mold on the surface of interior coatings [2, 5]: 5
Growth of mold on the surface of interior coatings [2, 6]: 8
Growth of mold on the surface of interior coatings [2, 7]: 5
Growth of mold on the surface of interior coatings [2, 8]: 8
Growth of mold on the surface of interior coatings [2, 9]: 6
Growth of mold on the surface of interior coatings [2, 10]: 9
Growth of mold on the surface of interior coatings [2, 11]: 6
Growth of mold on the surface of interior coatings [2, 12]: 9
Growth of mold on the surface of interior coatings [2, 13]: 7
Growth of mold on the surface of interior coatings [2, 14]: 10
Growth of mold on the surface of interior coatings [2, 15]: 7
Growth of mold on the surface of interior coatings [2, 16]: 10
